According to US12209096B2, “Compounds and compositions for inducing chondrogenesis” (NOVARTIS AG, priority 2017, dated 2025):
Like-named read-outs stand apart in the source and are kept apart here.

Columns and labels:
NHACs = test: calcium flux assay; type: cell-based, human; settings: for Emax: read-out: (A) % Efficacy
Outline: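 FLIPR fluorescence (ex 470–495 nm, em 515–575 nm) was read before and after compound dispense at the indicated dose. Chondrocytes (NHACs), 2000 cells/well, had been dye-loaded 24 h after plating with Calcium 5 in HBSS/HEPES plus 5 mM probenecid, 1 h, room temperature.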

C3H10T1/2 cell line = test: alkaline phosphatase assay in C3H10T1/2; type: cell-based; settings: Mus musculus, C3H 10T1/2, 144 h, alkaline phosphatase assay in C3H10T1/2, 6 days; for Emax: read-out: (D) % Efficacy; for IC50: read-out: (D) IC50
Protocol: To initiate differentiation in C3H10T1/2, Clone 8 (ATCC cat #CCL-226), 4,000 cells were plated/well in 384 Perkin Elmer CellCarrier Ultra plate in DMEM/High glucose (HyClone cat #SH30022.01) containing 10% FBS and 1× Antibiotic/Antimycotic (HyClone cat #SV30079.01). After 24 hours the test compound was then added to each well at the indicated dose. The cultures were grown at 37° C. for 6 days.
To detect the presence of hypertrophic cells, C3H10T1/2 were fixed with 4% paraformaldehyde and Hoeschst dye for 20 minutes, rinsed in PBS, then stained with Fast Blue RR Salt with Naphthol AS-MX Phosphate Alkaline Solution.
The ALP staining was imaged by fluoresecent microscopy, using the 561 wavelength, and/or quantified by high content imagining with the ImageXpress Micro Confocal (Molecular Devices, Sunnyvale, CA). Data analyses were performed with the customized multiwavelength cell-scoring application looking at the number of ALP positive cells per well.

Molecule | EC50 (NHACs; Homo sapiens) [µM] | IC50 (C3H10T1/2 cell line) [µM] | EC50 (NHACs) [µM] | Emax (NHACs; Homo sapiens) [%] | Emax (C3H10T1/2 cell line) [%] | (A) % Efficacy (NHACs) [%]
O=C(Nc1ccc(Cl)c(Cl)c1)[C@H]1[C@@H](c2ccnc(C(F)(F)F)c2)[C@H]2O[C@@H]1C[C@@H]2O (racemic) [Example 54, rac-(1R,2S,3S,4R,5S)—N-(3,4-dichlorophenyl)-5-hydroxy-3-(2-(trifluoromethyl)pyridin-4-yl)-7-oxabicyclo[2.2.1]heptane-2-carboxamide] | > 50 | > 20 |  | 22 | 35 | 
O=C(Nc1ccc(Cl)c(Cl)c1)[C@H]1[C@@H](c2ccnc(C(F)(F)F)c2)[C@H]2O[C@@H]1C[C@@H]2O (single isomer, unassigned) [Example 54a] | 3.5 | > 20 |  | 45 | 35 | 
O=C(Nc1ccc(Cl)c(Cl)c1)[C@@H]1[C@H](c2ccnc(C(F)(F)F)c2)[C@@H]2O[C@H]1C[C@H]2O (single isomer, unassigned) [Example 54b] | > 50 | > 20 |  | 16 | 46 | 
Cc1cc([C@@H]2[C@@H](C(=O)Nc3ccc(Cl)c(Cl)c3)[C@@H]3O[C@H]2C[C@H]3O)ccn1 (single isomer, unassigned) [Example 77b] | 20 | > 20 |  | 157 | 47 | 
O=C(Nc1cnc(Cl)c(Cl)c1)[C@H]1[C@H](c2ccnc(F)c2)[C@@H]2O[C@H]1C[C@H]2O (single isomer, unassigned) [Example 90b] | > 50 | > 20 |  | 44 | 45 | 
Cc1cc([C@@H]2[C@@H]3O[C@@H](C[C@@H]3F)[C@H]2C(=O)Nc2ccc(Cl)c(Cl)c2)ccn1 (single isomer, unassigned) [Example 94] | 18 | > 20 |  | 157 | 0 | 
Cc1cc([C@H]2[C@H]3O[C@H]([C@@H]4C[C@@H]43)[C@@H]2C(=O)Nc2cccc(C(F)(F)F)c2)ccn1 (single isomer, unassigned) [Example 121a] | 2.7 | 4.5 |  | 231 | 80 | 
O=C(Nc1ccc(Cl)c(Cl)c1)[C@@H]1[C@H]2O[C@H]([C@@H]3C[C@@H]32)[C@H]1c1cncnc1 (single isomer, unassigned) [Example 126b] | 5.6 | > 20 |  | 103 | 42 | 
COc1cc([C@H]2[C@H]3O[C@H](C[C@@H]3O)[C@@H]2C(=O)Nc2ccc(Cl)c(Cl)c2)ccn1 (single isomer, unassigned) [Example 139a] | 25 | 1.8 |  | 275 | 54 | 
COc1cc([C@@H]2[C@@H]3O[C@@H](C[C@H]3O)[C@H]2C(=O)Nc2ccc(Cl)c(Cl)c2)ccn1 (single isomer, unassigned) [Example 139b] | 26 | 7.7 |  | 141 | 82 | 
O=C(Nc1ccc(Cl)c(Cl)c1)[C@@H]1[C@@H](c2ccnc(C(F)(F)F)c2)[C@H]2O[C@@H]1C[C@@H]2O (single isomer, unassigned) [Example 145a] |  | 1.2 |  |  | 100 | 
O=C(Nc1ccc(Cl)c(Cl)c1)[C@H]1[C@H](c2ccnc(C(F)(F)F)c2)[C@@H]2O[C@H]1C[C@H]2O (single isomer, unassigned) [Example 145b] |  | 11 |  |  | 83 | 
Cc1cc([C@H]2[C@H]3O[C@H]([C@H](O)[C@@H]3O)[C@@H]2C(=O)Nc2cnc(Cl)c(Cl)c2)ccn1 [Example 162, (1S,2R,3S,4R,5S,6R)—N-(5,6-dichloropyridin-3-yl)-5,6-dihydroxy-3-(2-methylpyridin-4-yl)-7-oxabicyclo[2.2.1]heptane-2-carboxamide] | > 50 |  |  | 25 |  | 
(1R,2S,3S,4R,5S)-5-hydroxy-3-(pyridin-4-yl)-N-[3-(trifluoromethyl)phenyl]-7-oxabicyclo[2.2.1]heptane-2-carboxamide [Example 11] |  |  | > 50 |  |  | 27
(1R,2S,3S,4R,5S)-N-(5,6-dichloropyridin-3-yl)-5-hydroxy-3-(pyridin-4-yl)-7-oxabicyclo[2.2.1]heptane-2-carboxamide [Example 10] |  |  | > 50 |  |  | 0
(1S,2S,4R,5R,6S,7S)-N-(3,4-dichlorophenyl)-7-(2-methylpyridin-4-yl)-8-oxatricyclo[3.2.1.0^2,4]octane-6-carboxamide [Example 23] |  |  | > 50 |  |  | 54

The next lines start with results.

EC50 (NHACs; Homo sapiens) [µM] | IC50 (C3H10T1/2 cell line) [µM] | EC50 (NHACs) [µM] | Molecule | Emax (NHACs; Homo sapiens) [%] | Emax (C3H10T1/2 cell line) [%] | (A) % Efficacy (NHACs) [%]
> 50 |  |  | Cc1cc([C@H]2[C@H]3O[C@H]([C@H](O)[C@@H]3O)[C@@H]2C(=O)Nc2cnc(C)c(C(F)(F)F)c2)ccn1 [Example 163, (1S,2R,3S,4R,5S,6R)-5,6-dihydroxy-N-(6-methyl-5-(trifluoromethyl)pyridin-3-yl)-3-(2-methylpyridin-4-yl)-7-oxabicyclo[2.2.1]heptane-2-carboxamide] | 23 |  | 
> 50 |  |  | Cc1ccc([C@H]2[C@H]3O[C@H](C[C@H]3F)[C@@H]2C(=O)Nc2ccc(Cl)c(Cl)c2)cn1 [Example 164, (1R,2R,3S,4R,5R)—N-(3,4-dichlorophenyl)-5-fluoro-3-(6-methylpyridin-3-yl)-7-oxabicyclo[2.2.1]heptane-2-carboxamide] | 0 |  | 
6.9 |  |  | CN[C@@H]1C[C@H]2O[C@@H]1[C@H](c1ccnc(C)c1)[C@H]2C(=O)Nc1ccc(Cl)c(Cl)c1 [Example 167, (1R,2R,3S,4R,5R)—N-(3,4-dichlorophenyl)-5-(methylamino)-3-(2-methylpyridin-4-yl)-7-oxabicyclo[2.2.1]heptane-2-carboxamide] | 83 |  | 
> 50 |  |  | Cc1cc([C@H]2[C@H]3O[C@H](C[C@H]3N[C@H]3C[C@H](O)C3)[C@@H]2C(=O)Nc2ccc(Cl)c(Cl)c2)ccn1 [Example 170, (1R,2R,3S,4R,5R)—N-(3,4-dichlorophenyl)-5-(((1r,3R)-3-hydroxycyclobutyl)amino)-3-(2-methylpyridin-4-yl)-7-oxabicyclo[2.2.1]heptane-2-carboxamide] | 37 |  | 
24 |  |  | CN[C@@H]1C[C@H]2O[C@@H]1[C@H](c1ccnc(F)c1)[C@H]2C(=O)Nc1ccc(Cl)c(Cl)c1 [Example 171, (1R,2R,3S,4R,5R)—N-(3,4-dichlorophenyl)-3-(2-fluoropyridin-4-yl)-5-(methylamino)-7-oxabicyclo[2.2.1]heptane-2-carboxamide] | 237 |  | 
16 |  |  | CN(C)[C@@H]1C[C@H]2O[C@@H]1[C@H](c1ccnc(F)c1)[C@H]2C(=O)Nc1ccc(Cl)c(Cl)c1 [Example 172, (1R,2R,3S,4R,5R)—N-(3,4-dichlorophenyl)-5-(dimethylamino)-3-(2-fluoropyridin-4-yl)-7-oxabicyclo[2.2.1]heptane-2-carboxamide] | 177 |  | 
27 |  |  | O=C(Nc1ccc(Cl)c(Cl)c1)[C@@H]1[C@@H](c2ccnc(F)c2)[C@H]2O[C@@H]1C[C@H]2NCCO [Example 173, (1R,2R,3S,4R,5R)—N-(3,4-dichlorophenyl)-3-(2-fluoropyridin-4-yl)-5-((2-hydroxyethyl)amino)-7-oxabicyclo[2.2.1]heptane-2-carboxamide] | 54 |  | 
> 50 |  |  | CN[C@@H]1C[C@H]2O[C@@H]1[C@H](c1ccnc(F)c1)[C@H]2C(=O)Nc1cnc(Cl)c(Cl)c1 [Example 174, (1R,2R,3S,4R,5R)—N-(5,6-dichloropyridin-3-yl)-3-(2-fluoropyridin-4-yl)-5-(methylamino)-7-oxabicyclo[2.2.1]heptane-2-carboxamide] | 37 |  | 
29 |  |  | CN(C)[C@@H]1C[C@H]2O[C@@H]1[C@H](c1ccnc(F)c1)[C@H]2C(=O)Nc1cnc(Cl)c(Cl)c1 [Example 175, (1R,2R,3S,4R,5R)—N-(5,6-dichloropyridin-3-yl)-5-(dimethylamino)-3-(2-fluoropyridin-4-yl)-7-oxabicyclo[2.2.1]heptane-2-carboxamide] | 186 |  | 
25 |  |  | O=C(Nc1cnc(Cl)c(Cl)c1)[C@@H]1[C@@H](c2ccnc(F)c2)[C@H]2O[C@@H]1C[C@H]2NCCO [Example 176, (1R,2R,3S,4R,5R)—N-(5,6-dichloropyridin-3-yl)-3-(2-fluoropyridin-4-yl)-5-((2-hydroxyethyl)amino)-7-oxabicyclo[2.2.1]heptane-2-carboxamide] | 51 |  | 
> 50 |  |  | Cc1cc([C@@H]2[C@@H](C(=O)Nc3ccc(Cl)c(Cl)c3)[C@H]3C[C@@](C)(O)[C@@H]2O3)ccn1 [Example 178, (1R,2R,3S,4R,5R)—N-(3,4-dichlorophenyl)-5-hydroxy-5-methyl-3-(2-methylpyridin-4-yl)-7-oxabicyclo[2.2.1]heptane-2-carboxamide] | 1 |  | 
> 50 |  |  | Cc1cc([C@H]2[C@H](C(=O)Nc3ccc(Cl)c(Cl)c3)[C@@H]3C[C@](C)(O)[C@H]2O3)ccn1 [Example 179, (1S,2S,3R,4S,5S)—N-(3,4-dichlorophenyl)-5-hydroxy-5-methyl-3-(2-methylpyridin-4-yl)-7-oxabicyclo[2.2.1]heptane-2-carboxamide] | 22 |  | 
